Assay results as given in patent publication US20110015162A1, “15,16-Methylene-17-hydroxy-19-nor-21-carboxylic acid-steroid Y-lactone derivative, use thereof and medicinal products containing the derivative” (Bayer Schering Pharma Aktiengesellschaft, priority 2007, published 2011).
Where two headings read alike, the source gives them in different places.

Tests used:
androgen receptor [1] = molecular target: T1, androgen receptor (Homo sapiens, UniProt P10275); experiment: Androgenic/antiandrogenic action by transactivation test (PC3 reporter cells); assay type: cell-based; design: expressed in transfected cells; host or cells: PC3 cells
T1 sequence (P10275 1-920): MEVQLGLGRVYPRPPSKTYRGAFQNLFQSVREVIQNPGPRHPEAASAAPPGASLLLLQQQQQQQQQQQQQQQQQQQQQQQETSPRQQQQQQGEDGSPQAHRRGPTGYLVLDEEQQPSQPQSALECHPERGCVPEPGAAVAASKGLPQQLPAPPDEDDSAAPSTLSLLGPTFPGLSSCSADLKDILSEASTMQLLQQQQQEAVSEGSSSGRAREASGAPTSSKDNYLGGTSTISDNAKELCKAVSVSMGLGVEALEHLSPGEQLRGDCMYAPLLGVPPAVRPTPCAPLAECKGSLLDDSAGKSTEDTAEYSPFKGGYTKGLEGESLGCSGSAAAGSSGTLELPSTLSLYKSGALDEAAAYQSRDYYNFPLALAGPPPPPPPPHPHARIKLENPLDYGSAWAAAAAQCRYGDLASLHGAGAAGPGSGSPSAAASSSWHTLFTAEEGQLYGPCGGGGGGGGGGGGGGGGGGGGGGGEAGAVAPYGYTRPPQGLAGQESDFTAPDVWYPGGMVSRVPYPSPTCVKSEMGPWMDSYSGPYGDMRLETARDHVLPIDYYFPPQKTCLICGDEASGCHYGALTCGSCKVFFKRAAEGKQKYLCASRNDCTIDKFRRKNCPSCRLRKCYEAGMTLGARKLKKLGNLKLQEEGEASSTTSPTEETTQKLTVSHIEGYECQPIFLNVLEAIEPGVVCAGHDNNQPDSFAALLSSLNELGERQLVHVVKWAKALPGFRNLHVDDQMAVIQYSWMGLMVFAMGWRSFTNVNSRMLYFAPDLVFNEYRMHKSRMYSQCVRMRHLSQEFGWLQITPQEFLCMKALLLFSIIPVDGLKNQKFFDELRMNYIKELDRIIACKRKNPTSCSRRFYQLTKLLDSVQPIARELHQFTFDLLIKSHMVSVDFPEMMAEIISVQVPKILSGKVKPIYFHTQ
Method: The test compounds were added eight hours later, and the cells were incubated with the compounds for 16 hours. The tests were carried out in triplicate. At the end of incubation the medium containing the effector was removed and replaced with lysis buffer. After luciferase assay substrate (Promega, #E1501) had been added, the 96-well plates were then put in a microplate luminometer (Pherastar, BMG Labtech), and the luminescence was measured. The IC50 values were evaluated using software for calculating dose-effect relations.
6. Determination of Androgenic/Antiandrogenic Action by Means of Transactivation Tests:
The androgenic/antiandrogenic action of the test substances was determined as for the transactivation tests described above.
The following modifications were made: In this case reporter cell lines were used (PC3 cells) that express the androgen receptor, and a reporter construct that contains luciferase under the control of a steroid hormone-responsive promoter.
For determination of the antiandrogenic efficacy, 0.05 nM R1881 was added to the cells, in order to achieve almost maximum stimulation of the reporter gene.

[2] = molecular target: T2, mineralocorticoid receptor (Homo sapiens, UniProt P08235); experiment: Antimineralocorticoid action by transactivation test (MDCK reporter cells); assay type: cell-based; design: expressed in transfected cells; host or cells: MDCK cells; conditions: for Emax: MDCK, read-out: Mineralocorticoid receptor Antagonism efficacy;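 for Emax: percent inhibition of the aldosterone-stimulated reporter signal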
T2 sequence (P08235 1-984): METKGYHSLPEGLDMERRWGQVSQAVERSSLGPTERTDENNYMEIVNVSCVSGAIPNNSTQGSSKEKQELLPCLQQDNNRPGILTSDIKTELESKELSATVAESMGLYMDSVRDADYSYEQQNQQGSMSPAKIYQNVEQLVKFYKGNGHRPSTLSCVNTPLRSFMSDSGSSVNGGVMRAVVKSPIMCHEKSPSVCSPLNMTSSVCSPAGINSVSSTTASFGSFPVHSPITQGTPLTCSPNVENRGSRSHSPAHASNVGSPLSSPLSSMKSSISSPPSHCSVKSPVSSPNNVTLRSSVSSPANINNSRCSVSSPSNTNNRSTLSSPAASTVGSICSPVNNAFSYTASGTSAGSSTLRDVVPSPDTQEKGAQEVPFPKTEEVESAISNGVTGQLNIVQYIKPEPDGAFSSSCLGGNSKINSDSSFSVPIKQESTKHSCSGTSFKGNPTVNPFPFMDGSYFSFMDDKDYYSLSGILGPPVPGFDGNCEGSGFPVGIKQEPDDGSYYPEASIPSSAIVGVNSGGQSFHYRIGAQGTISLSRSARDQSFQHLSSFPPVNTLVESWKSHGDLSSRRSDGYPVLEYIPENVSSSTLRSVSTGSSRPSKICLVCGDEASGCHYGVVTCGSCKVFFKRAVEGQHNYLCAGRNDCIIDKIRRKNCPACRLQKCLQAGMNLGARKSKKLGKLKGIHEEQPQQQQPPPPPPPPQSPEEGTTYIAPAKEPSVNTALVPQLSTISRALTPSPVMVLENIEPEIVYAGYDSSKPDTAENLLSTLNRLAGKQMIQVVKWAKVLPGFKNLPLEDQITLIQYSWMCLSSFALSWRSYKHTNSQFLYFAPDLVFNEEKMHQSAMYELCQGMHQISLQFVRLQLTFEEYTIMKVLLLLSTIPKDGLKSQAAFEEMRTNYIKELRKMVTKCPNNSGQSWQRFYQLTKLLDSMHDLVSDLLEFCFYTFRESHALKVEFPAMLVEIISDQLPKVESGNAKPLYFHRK
Procedure, shortened: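 MDCK reporter cells expressing human mineralocorticoid receptor, transiently carrying luciferase under a steroid hormone-responsive promoter.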

androgen receptor [3] = molecular target: T1, androgen receptor; experiment: Androgen receptor binding test; design: expressed in transfected cells; conditions: reference substance 3H-testosterone
[4] = PC-3, read-out: Androgen receptor Agonism efficacy
[5] = PC-3, read-out: Androgen receptor Antagonism efficacy

## CC[C@]12CC[C@H]3[C@@H](CCC4=CC(=O)CC[C@@H]43)[C@@H]1[C@@H]1C[C@@H]1[C@@]21C=CC(=O)O1 [Example 9, 17β-Hydroxy-18-methyl-15β,16β-methylene-19-nor-17α-pregna-4,20(Z) dien-3-one-21-carboxylic acid γ-lactone]
Androgen receptor [1]
  EC50: 4.7 nM
Androgen receptor [1]; [4]
  Emax: 96.2%
Androgen receptor [1]; [5]
  Emax: 5%
[2]
  IC50: 3 nM
  Emax: 27.8%
Androgen receptor [3]
  Androgen receptor Competition factor: 5.6

## C=C[C@@H]1CC2=CC(=O)CC[C@@H]2[C@H]2CC[C@@]3(C)[C@@H]([C@H]4C[C@H]4[C@@]34C=CC(=O)O4)[C@@H]21 [Example 16A, 17β-Hydroxy-7α-vinyl-15α,16α-methylene-19-nor-17α-pregna-4;20(Z)-dien-3-one-21-carboxylic acid γ-lactone]
Androgen receptor [1]
  EC50: 12 nM
Androgen receptor [1]; [4]
  Emax: 62.6%
Androgen receptor [1]; [5]
  Emax: 5%
[2]
  IC50: 95 nM
  Emax: 103%
Androgen receptor [3]
  Androgen receptor Competition factor: 2.6

## CC[C@@H]1CC2=CC(=O)CC[C@@H]2[C@H]2CC[C@@]3(C)[C@@H]([C@@H]4C[C@@H]4[C@@]34C=CC(=O)O4)[C@H]12 [Example 24A, 7α-Ethyl-17β-hydroxy-15β,16β-methylene-19-nor-17α-pregna-4,20(Z)-dien-3-one-21-carboxylic acid γ-lactone]
Androgen receptor [1]
  EC50: 52 nM
  IC50: 11 nM
Androgen receptor [1]; [4]
  Emax: 36.8%
Androgen receptor [1]; [5]
  Emax: 22.5%
[2]
  IC50: 160 nM
  Emax: 81.1%
Androgen receptor [3]
  Androgen receptor Competition factor: 8.1

## CC[C@@H]1CC2=CC(=O)CC[C@@H]2[C@H]2CC[C@@]3(C)[C@@H]([C@H]4C[C@H]4[C@@]34C=CC(=O)O4)[C@H]12 [Example 15A, 17β-Hydroxy-7α-ethyl-15α,16α-methylene-19-nor-17α-pregna-4,20(Z)-dien-3-one-21-carboxylic acid γ-lactone]
Androgen receptor [1]
  EC50: 11 nM
Androgen receptor [1]; [4]
  Emax: 49.4%
Androgen receptor [1]; [5]
  Emax: 5%
[2]
  IC50: 12 nM
  Emax: 112%
Androgen receptor [3]
  Androgen receptor Competition factor: 2.2

## CC[C@]12CC[C@H]3[C@H]([C@@H]1[C@@H]1C[C@@H]1[C@@]21C=CC(=O)O1)[C@H](C1CC1)CC1=CC(=O)CC[C@@H]13 [Example 7A, 17β-Hydroxy-7α-cyclopropyl-18-methyl-15β,16β-methylene-19-nor-17α-pregna-4,20(Z)-dien-3-one-21-carboxylic acid γ-lactone]
Androgen receptor [1]
  EC50: 33 nM
Androgen receptor [1]; [4]
  Emax: 62.6%
Androgen receptor [1]; [5]
  Emax: 5%
[2]
  IC50: 77 nM
  Emax: 102%
Androgen receptor [3]
  Androgen receptor Competition factor: 5.2

## C[C@@H]1CC2=CC(=O)CC[C@@H]2[C@H]2CC[C@@]3(C)[C@@H]([C@@H]4C[C@@H]4[C@@]34C=CC(=O)O4)[C@@H]21 [Example 23A, 17β-Hydroxy-7α-methyl-15β,16β-methylene-19-nor-17α-pregna-4,20(2)-dien-3-one-21-carboxylic acid γ-lactone]
Androgen receptor [1]
  EC50: 19 nM
Androgen receptor [1]; [4]
  Emax: 63.6%
Androgen receptor [1]; [5]
  Emax: 5%
[2]
  IC50: 290 nM
  Emax: 105%
Androgen receptor [3]
  Androgen receptor Competition factor: 4.2
